Assay results as given in patent publication US12459951B2, “Compounds that interact with RAS superfamily proteins for treatment of cancers, inflammatory diseases, rasopathies, and fibrotic disease” (SHY Therapeutics, LLC, priority 2022, dated 2025).

Tests used:
[1] = test system: TNF-alpha; experiment: TNF-alpha Quantification Assay (ELISA), LPS-stimulated RAW 264.7; type: cell-based; settings: Mus musculus, RAW264.7; at 10 μM; read-out: TNFα: % inh.
[2] = test system: IL6; experiment: IL-6 Quantification Assay (ELISA), LPS-stimulated RAW 264.7; type: cell-based; parameters: inhibition: dose or concentration left out as unconfirmed; settings: Mus musculus, RAW264.7; read-out: IL-6: % inh.
[3] = target: T1, Rac-1 (Homo sapiens, UniProt P63000); experiment: Ras GTP Binding Domain Inhibition Assay (Ras Superfamily Assay); settings: read-out: Rac-1: % inh.
T1 construct: made in house
Description: (§1) Biological Example 3: Ras GTP Binding Domain Inhibition Assay
(§2) The assays described in Example 3 are collectively referred to as the “Ras Superfamily Assay” throughout this application.
(§3) A Ras Superfamily Activity Assay (as disclosed in International Application No. PCT/US2018/038613, filed Jun. 20, 2018, which is incorporated by reference in its entirety) was used as a specific assay to evaluate compounds against the following for the following Ras Superfamily proteins: KRas wild type, KRas Q61H mutant, KRas G12C mutant, KRas G12D mutant, Rac-1, and Rho-A.
(§4) • 25 mM Tris-HCl, pH 7.4 • 27 mM KCl • 137 mM NaCl • 1 mM MgCl2 • 1 mM DTT Buffer-II: • 50 mM Tris-HCl, pH 7.0 • 1 mM MgCl2 • 1 mM DTT
(§5) The small GTPases proteins: KRas wild type. KRas Q61H mutant, KRas G12C mutant, KRas G12D mutants, Rac-1, and Rho-A were expressed as His-tagged proteins. In addition, the Guanosine nucleotide Exchange Factor (GEF) Sos protein (residues 556-1049) was expressed as a His-tagged protein. In cells, the guanine nucleotide exchange factor Sos protein promotes activation of Ras proteins by stimulating an exchange of GDP for GTP. The inclusion of Sos to the Ras GTP binding domain inhibition assay may be considered as an alternative representation of physiological cellular conditions for evaluating the inhibitory activity of some of the tested small molecules.
(§6) For the assay, all purified small GTPases proteins were diluted in Buffer-I or Buffer-II to a final concentration of 10-30 μg/mL. 200 μL of each diluted protein was added to a nickel-coated 96-well plate and incubated overnight at 4° C. Then the protein solution was discarded and 200 μL of Buffer-I or Buffer-II was added to each well in the presence of 1% DMSO. Compounds to be tested were added to the protein-coated wells at final concentration of 20 μM, and incubated for 3 hours at room temperature with and without 10-30 μg/mL of Sos added to the final hour of the incubation. When performing IC50 measurements a serial dilution of all tested concentrations was added. Then Cy3-GTP or Cy5-GTP was added to each well to a final concentration of 100 nM. The labeled GTP was incubated for 45 minutes at room temperature. Following GTP incubation, wells were washed 3× in Buffer-I or Buffer-II and 200 μL of Buffer-I or Buffer-II was added to each well. Following washes, the amount of bound labeled-GTP was measured using a SpectraMax M3 (Molecular Devices).

[4] = test system: KRas wild type; experiment: as above; settings: 20 μM compound
Description: as §1, §2, §3, §4, §5, §6

[5] = test system: KRas G12D mutant; experiment: as above; settings: 20 μM compound
Description: as §1, §2, §3, §4, §5, §6

- inhibition at 20 µM [3]: 1 to 25%
- KRas wild type + SOS: % inh. ([4]; with SOS): A (A = 1-25% inhibition)
- KRas wild type: % inh. ([4]; without SOS): A (A = 1-25% inhibition)
- KRas G12D mutant + SOS: % inh. ([5]; with SOS): A (A = 1-25% inhibition)
- KRas G12D mutant: % inh. ([5]; without SOS): A (A = 1-25% inhibition)
Compound: COC(=O)c1c(-c2ccn(C)n2)cn2nc(-c3nccn3C)nc(N[C@H]3CC[C@H](OC)C3)c12 (racemic) [Compound 180, Methyl 4-(((1S,3S)-3-methoxycyclopentyl)amino)-2-(1-methyl-1H-imidazol-2-yl)-6-(1-methyl-1H-pyrazol-3-yl)pyrrolo[2,1-f][1,2,4]triazine-5-carboxylate]
- inhibition at 10 µM [1]: 25 to 49%
- inhibition [2]: 50 to 74%
